Data taken from patent publication US9061984B2 (University of Louisville Research Foundation, Inc., priority 2008, dated 2015).
Where two headings read alike, the source gives them in different places.

Tested on: several cell lines (Panel/Cell Line)
Assay: GI50, TGI and LC50 of compound II-21 for several cell lines (Table 12)
Details: 48-h exposure; for GI50 / CC50: Homo sapiens

How did the GI50 (NCI-H522, 48 h, Non-Small Cell Lung Cancer, NCI-H522) turn out when `C(=N/Nc1ncnc2sc3c(c12)CCCC3)/c1ccccn1` [II-21] was run?
Its GI50 is 0.419 µM.

What about the CC50 (NCI-H522, 48 h, read-out: LC50 (M), Non-Small Cell Lung Cancer, NCI-H522) of the same compound?
Its CC50 is > 0.0001 M.

What about the GI50 (NCI/ADR-RES, 48 h, Ovarian Cancer) of the same compound?
Its GI50 is 0.427 µM.

What about the CC50 (NCI/ADR-RES, 48 h, read-out: LC50 (M), Ovarian Cancer, NCI/ADR-RES) of the same compound?
Its CC50 is > 0.0001 M.

What about the GI50 (OVCAR-3, 48 h, Ovarian Cancer, OVCAR-3) of the same compound?
The GI50 was 0.109 µM.

And the CC50 (OVCAR-3, 48 h, read-out: LC50 (M), Ovarian Cancer, OVCAR-3)?
Its CC50 is 4.39e-05 M.

What about the GI50 (OVCAR-4, 48 h, Ovarian Cancer, OVCAR-4) of the same compound?
The GI50 was 0.431 µM.

And the CC50 (OVCAR-4, 48 h, read-out: LC50 (M), Ovarian Cancer, OVCAR-4)?
Its CC50 is > 0.0001 M.

And the GI50 (OVCAR-5, 48 h, Ovarian Cancer, OVCAR-5)?
Its GI50 is 0.823 µM.

And the CC50 (OVCAR-5, 48 h, read-out: LC50 (M), Ovarian Cancer, OVCAR-5)?
Its CC50 is > 0.0001 M.

And the GI50 (OVCAR-8, 48 h, Ovarian Cancer, OVCAR-8)?
Its GI50 is 0.481 µM.

And the CC50 (OVCAR-8, 48 h, read-out: LC50 (M), Ovarian Cancer, OVCAR-8)?
The CC50 was > 0.0001 M.

And the GI50 (RPMI-8226, 48 h, Leukemia, RPMI-8226)?
Its GI50 is 0.35 µM.

And the CC50 (RPMI-8226, 48 h, read-out: LC50 (M), Leukemia, RPMI-8226)?
Its CC50 is > 0.0001 M.

What about the GI50 (RXF 393, 48 h, Renal Cancer, RXF 393) of the same compound?
The GI50 was 0.423 µM.

And the CC50 (RXF 393, 48 h, read-out: LC50 (M), Renal Cancer, RXF 393)?
The CC50 was 4.53e-05 M.

And the GI50 (SF-268, 48 h, CNS Cancer, SF-268)?
The GI50 was 0.356 µM.

And the CC50 (SF-268, 48 h, read-out: LC50 (M), CNS Cancer, SF-268)?
The CC50 was 8.3e-05 M.

And the GI50 (SF-295, 48 h, CNS Cancer, SF-295)?
Its GI50 is 0.313 µM.

And the CC50 (SF-295, 48 h, read-out: LC50 (M), CNS Cancer, SF-295)?
The CC50 was > 0.0001 M.

And the GI50 (SF-539, 48 h, CNS Cancer, SF-539)?
The GI50 was 0.391 µM.

What about the CC50 (SF-539, 48 h, read-out: LC50 (M), CNS Cancer, SF-539) of the same compound?
Its CC50 is 2.92e-05 M.

And the GI50 (SK-MEL-2, 48 h, Melanoma, SK-MEL-2)?
The GI50 was 7.51 µM.

And the CC50 (SK-MEL-2, 48 h, read-out: LC50 (M), Melanoma, SK-MEL-2)?
The CC50 was 6.78e-05 M.

And the GI50 (SK-MEL-5, 48 h, Melanoma, SK-MEL-5)?
Its GI50 is 0.332 µM.

And the CC50 (SK-MEL-5, 48 h, read-out: LC50 (M), Melanoma, SK-MEL-5)?
Its CC50 is 2.36e-05 M.

And the GI50 (SK-MEL-28, 48 h, Melanoma, SK-MEL-28)?
Its GI50 is 0.422 µM.

What about the CC50 (SK-MEL-28, 48 h, read-out: LC50 (M), Melanoma, SK-MEL-28) of the same compound?
Its CC50 is 5.46e-05 M.

What about the GI50 (SK-OV-3, 48 h, Ovarian Cancer, SK-OV-3) of the same compound?
Its GI50 is 0.41 µM.

And the CC50 (SK-OV-3, 48 h, read-out: LC50 (M), Ovarian Cancer, SK-OV-3)?
The CC50 was > 0.0001 M.

What about the GI50 (SN12C, 48 h, Renal Cancer) of the same compound?
The GI50 was 0.426 µM.

And the CC50 (SN12C, 48 h, read-out: LC50 (M), Renal Cancer, SN12C)?
The CC50 was 8.1e-05 M.

What about the GI50 (SNB-19, 48 h, CNS Cancer, SNB-19) of the same compound?
Its GI50 is 0.767 µM.

What about the CC50 (SNB-19, 48 h, read-out: LC50 (M), CNS Cancer, SNB-19) of the same compound?
Its CC50 is > 0.0001 M.

What about the GI50 (SNB-75, 48 h, CNS Cancer, SNB-75) of the same compound?
The GI50 was 0.585 µM.

What about the CC50 (SNB-75, 48 h, read-out: LC50 (M), CNS Cancer, SNB-75) of the same compound?
Its CC50 is 4.93e-05 M.

What about the GI50 (SW-620, 48 h, Colon Cancer, SW-620) of the same compound?
Its GI50 is 0.561 µM.

What about the CC50 (SW-620, 48 h, read-out: LC50 (M), Colon Cancer, SW-620) of the same compound?
Its CC50 is 5.95e-05 M.

What about the GI50 (T47D, 48 h, Breast Cancer, T-47D) of the same compound?
The GI50 was 0.0764 µM.

And the CC50 (T47D, 48 h, read-out: LC50 (M), Breast Cancer, T-47D)?
The CC50 was > 0.0001 M.

What about the GI50 (TK-10, 48 h, Renal Cancer, TK-10) of the same compound?
The GI50 was 0.486 µM.

And the CC50 (TK-10, 48 h, read-out: LC50 (M), Renal Cancer, TK-10)?
Its CC50 is > 0.0001 M.

What about the GI50 (U-251, 48 h, CNS Cancer, U251) of the same compound?
Its GI50 is 0.369 µM.

And the CC50 (U-251, 48 h, read-out: LC50 (M), CNS Cancer, U251)?
Its CC50 is 3.48e-05 M.

And the GI50 (UACC-62, 48 h, Melanoma, UACC-62)?
Its GI50 is 0.379 µM.

And the CC50 (UACC-62, 48 h, read-out: LC50 (M), Melanoma, UACC-62)?
Its CC50 is 4.84e-05 M.

And the GI50 (UACC-257, 48 h, Melanoma, UACC-257)?
The GI50 was 0.355 µM.

And the CC50 (UACC-257, 48 h, read-out: LC50 (M), Melanoma, UACC-257)?
The CC50 was 4.17e-05 M.

And the GI50 (UO-31, 48 h, Renal Cancer, UO-31)?
Its GI50 is 0.286 µM.

What about the CC50 (UO-31, 48 h, read-out: LC50 (M), Renal Cancer, UO-31) of the same compound?
The CC50 was 6.3e-05 M.

And the “TGI” value (Leukemia, CCRF-CEM)?
Its value is 0.769 µM.

What about the “TGI” value (Leukemia, HL-60(TB)) of the same compound?
Its value is 0.407 µM.

What about the “TGI” value (Leukemia, K-562) of the same compound?
The value was 10.8 µM.

And the “TGI” value (Leukemia, MOLT-4)?
Its value is 0.774 µM.

What about the “TGI” value (Leukemia, RPMI-8226) of the same compound?
Its value is 12.5 µM.

And the “TGI” value (Leukemia, SR)?
The value was 0.953 µM.

What about the “TGI” value (Melanoma, M14) of the same compound?
Its value is 0.599 µM.

And the “TGI” value (Melanoma, MALME-3M)?
The value was 10.3 µM.

What about the “TGI” value (Melanoma, MDA-MB-435) of the same compound?
Its value is 25.1 µM.

What about the “TGI” value (Melanoma, SK-MEL-2) of the same compound?
The value was 25.5 µM.

And the “TGI” value (Melanoma, SK-MEL-5)?
The value was 1.72 µM.

What about the “TGI” value (Melanoma, SK-MEL-28) of the same compound?
Its value is 16.7 µM.

What about the “TGI” value (Melanoma, UACC-62) of the same compound?
The value was 6.54 µM.

And the “TGI” value (Non-Small Cell Lung Cancer, A549/ATCC)?
Its value is 14.9 µM.

And the “TGI” value (Non-Small Cell Lung Cancer, EKVX)?
The value was 20.5 µM.

What about the “TGI” value (Non-Small Cell Lung Cancer, HOP-62) of the same compound?
Its value is 17.7 µM.

What about the “TGI” value (Non-Small Cell Lung Cancer, HOP-92) of the same compound?
The value was 31 µM.

What about the “TGI” value (Non-Small Cell Lung Cancer, NCI-H23) of the same compound?
Its value is 34.3 µM.

And the “TGI” value (Non-Small Cell Lung Cancer, NCI-H226)?
Its value is 16.2 µM.

And the “TGI” value (Non-Small Cell Lung Cancer, NCI-H322M)?
The value was 35 µM.

And the “TGI” value (Non-Small Cell Lung Cancer, NCI-H460)?
The value was 1.73 µM.

What about the “TGI” value (Non-Small Cell Lung Cancer, NCI-H522) of the same compound?
The value was 23.2 µM.

And the “TGI” value (Ovarian Cancer, IGROV1)?
Its value is 28.9 µM.

And the “TGI” value (Ovarian Cancer, NCI/ADR-RES)?
The value was 58.1 µM.

What about the “TGI” value (Ovarian Cancer, OVCAR-3) of the same compound?
Its value is 14.5 µM.

What about the “TGI” value (Ovarian Cancer, OVCAR-4) of the same compound?
Its value is 26.3 µM.

And the “TGI” value (Ovarian Cancer, OVCAR-5)?
The value was 31.4 µM.

And the “TGI” value (Ovarian Cancer, OVCAR-8)?
The value was >100 µM.

What about the “TGI” value (Ovarian Cancer, SK-OV-3) of the same compound?
The value was 29.2 µM.

What about the “TGI” value (Prostate Cancer, DU-145) of the same compound?
Its value is 15.1 µM.

What about the “TGI” value (Prostate Cancer, PC-3) of the same compound?
Its value is 71.1 µM.

And the “TGI” value (Renal Cancer, 786-0)?
The value was 0.947 µM.

And the “TGI” value (Renal Cancer, A498)?
Its value is 8.81 µM.

What about the “TGI” value (Renal Cancer, ACHN) of the same compound?
Its value is 11 µM.

What about the “TGI” value (Renal Cancer, CAKI-1) of the same compound?
Its value is 14.8 µM.

What about the “TGI” value (Renal Cancer, RXF 393) of the same compound?
The value was 10.6 µM.

And the “TGI” value (Renal Cancer, SN12C)?
The value was 15.3 µM.

What about the “TGI” value (Renal Cancer, TK-10) of the same compound?
Its value is 56.6 µM.

And the “TGI” value (Renal Cancer, UO-31)?
The value was 1.65 µM.
